From the supplement of paper PMC10627819

Tests used:
[1] = test system: S. aureus Newman; assay: fitness (endpoint OD595 vs no drug) (fraction); higher = more growth
Procedure, shortened: (§1)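 Volumes were 30 µl per well, or 55 µl for S. pneumoniae, in 384-well plates inoculated at OD595 0.01. Media were TSB, LB Lennox or CY at 37 °C, and OD595 was read every 30 min for 14 h with first-reading background subtraction. Fitness is the ratio of optical density at stationary-phase entry to the robust mean of no-drug controls. That ratio is capped at 1.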

[2] = test system: S. pneumoniae D39V; assay: as above
Procedure, shortened: as §1

O=C(N[C@H](CO)[C@H](O)c1ccc([N+](=O)[O-])cc1)C(Cl)Cl [Chloramphenicol] + CC1(C)S[C@@H]2[C@H](NC(=O)Cc3ccccc3)C(=O)N2[C@H]1C(=O)O [Penicillin G]
fitness, [1]
Conditions | first compound 0.75 µg/mL | first compound 1.5 µg/mL | first compound 3 µg/mL
partner 0.0195 µg/mL | 0.744 | 0.494 | 0.187
partner 0.039 µg/mL | 0.742 | 0.475 | 0.173
partner 0.078 µg/mL | 0.72 | 0.477 | 0.181

O=C(N[C@H](CO)[C@H](O)c1ccc([N+](=O)[O-])cc1)C(Cl)Cl [Chloramphenicol] + CC1=C(C(=O)O)N2C(=O)[C@@H](NC(=O)[C@H](N)c3ccccc3)[C@H]2SC1 [Cephalexin]
fitness, [1]
Conditions | partner 0.25 µg/mL | partner 0.5 µg/mL | partner 1 µg/mL
first compound 0.75 µg/mL | 0.792 | 0.891 | 0.908
first compound 3 µg/mL | – | 0.312 | –

O=C(N[C@H](CO)[C@H](O)c1ccc([N+](=O)[O-])cc1)C(Cl)Cl [Chloramphenicol] + CO/N=C(\C(=O)N[C@@H]1C(=O)N2C(C(=O)O)=C(COC(N)=O)CS[C@H]12)c1ccco1 [Cefuroxime]
fitness, [1], one replicate
Conditions | first compound 0.75 µg/mL | first compound 1.5 µg/mL | first compound 3 µg/mL
partner 0.04875 µg/mL | 0.808 | 0.377 | –
partner 0.0975 µg/mL | 0.697 | 0.312 | 0.0949
partner 0.195 µg/mL | 0.64 | 0.206 | 0.065

O=C(N[C@H](CO)[C@H](O)c1ccc([N+](=O)[O-])cc1)C(Cl)Cl [Chloramphenicol] + O=C(O)[C@H]1/C(=C/CO)O[C@@H]2CC(=O)N21 [Clavulanic acid]
fitness, [1], one replicate
Conditions | first compound 0.75 µg/mL | first compound 1.5 µg/mL | first compound 3 µg/mL
partner 0.03125 µg/mL | 0.891 | 0.7 | 0.0864
partner 0.0625 µg/mL | 0.889 | 0.708 | –
partner 0.125 µg/mL | 0.85 | 0.494 | 0.11

CC[C@H]1OC(=O)[C@H](C)[C@@H](O[C@H]2C[C@@](C)(OC)[C@@H](O)[C@H](C)O2)[C@H](C)[C@@H](O[C@@H]2O[C@H](C)C[C@H](N(C)C)[C@H]2O)[C@](C)(OC)C[C@@H](C)C(=O)[C@H](C)[C@@H](O)[C@]1(C)O [Clarithromycin] + CC1=C(C(=O)O)N2C(=O)[C@@H](NC(=O)[C@H](N)c3ccccc3)[C@H]2SC1 [Cephalexin]
fitness, [2], one replicate
Conditions | first compound 0.007812 µg/mL | first compound 0.01562 µg/mL | first compound 0.03125 µg/mL | first compound 0.0625 µg/mL | first compound 0.125 µg/mL | first compound 0.25 µg/mL
partner 0.125 µg/mL | – | – | – | 0.701 | 0.33 | 0.138
partner 0.25 µg/mL | – | – | – | 0.723 | 0.381 | 0.174
partner 0.5 µg/mL | – | – | – | 0.777 | 0.4 | 0.163
partner 1 µg/mL | 0.314 | 0.417 | 0.236 | – | – | –
partner 2 µg/mL | 0.028 | 0.0414 | 0.0229 | – | – | –
partner 4 µg/mL | 0.0398 | 0.0811 | 0.0306 | – | – | –

fitness, [2]
Conditions | first compound 0.07 µg/mL | first compound 0.14 µg/mL | first compound 0.28 µg/mL
partner 1 µg/mL | 0.0665 | 0.0755 | 0.0377
partner 2 µg/mL | 0.0399 | 0.0839 | 0.0276
partner 4 µg/mL | 0.0364 | 0.0743 | 0.0463

CC[C@H]1OC(=O)[C@H](C)[C@@H](O[C@H]2C[C@@](C)(OC)[C@@H](O)[C@H](C)O2)[C@H](C)[C@@H](O[C@@H]2O[C@H](C)C[C@H](N(C)C)[C@H]2O)[C@](C)(OC)C[C@@H](C)C(=O)[C@H](C)[C@@H](O)[C@]1(C)O [Clarithromycin] + CN(C)[C@@H]1C(O)=C(C(N)=O)C(=O)[C@@]2(O)C(O)=C3C(=O)c4c(O)ccc(Cl)c4[C@@](C)(O)[C@H]3C[C@@H]12 [Chlortetracycline]
fitness, [2], one replicate
Conditions | first compound 0.007812 µg/mL | first compound 0.01562 µg/mL | first compound 0.03125 µg/mL
partner 0.012 µg/mL | 0.693 | 0.688 | 0.542
partner 0.024 µg/mL | 0.844 | 0.654 | 0.455
partner 0.048 µg/mL | 0.693 | 0.519 | 0.244

fitness, [2]
Conditions | first compound 0.0625 µg/mL | first compound 0.07 µg/mL | first compound 0.125 µg/mL | first compound 0.14 µg/mL | first compound 0.25 µg/mL | first compound 0.28 µg/mL
partner 0.012 µg/mL | – | 0.0902 | – | 0.14 | – | 0.093
partner 0.024 µg/mL | – | 0.121 | – | 0.122 | – | 0.0945
partner 0.048 µg/mL | – | 0.123 | – | 0.132 | – | 0.118
partner 0.375 µg/mL | 0.0643 | – | 0.0595 | – | 0.0683 | –
partner 0.75 µg/mL | 0.0438 | – | 0.0485 | – | 0.0679 | –
partner 1.5 µg/mL | 0.0386 | – | 0.0516 | – | 0.0374 | –

CC[C@H]1OC(=O)[C@H](C)[C@@H](O[C@H]2C[C@@](C)(OC)[C@@H](O)[C@H](C)O2)[C@H](C)[C@@H](O[C@@H]2O[C@H](C)C[C@H](N(C)C)[C@H]2O)[C@](C)(OC)C[C@@H](C)C(=O)[C@H](C)[C@@H](O)[C@]1(C)O [Clarithromycin] + CO/N=C(\C(=O)N[C@@H]1C(=O)N2C(C(=O)O)=C(COC(C)=O)CS[C@H]12)c1csc(N)n1 [Cefotaxime]
fitness, [2], one replicate
Conditions | first compound 0.007812 µg/mL | first compound 0.01562 µg/mL | first compound 0.03125 µg/mL
partner 0.0018 µg/mL | 0.903 | 0.874 | 0.652
partner 0.0035 µg/mL | 0.922 | 0.868 | 0.662
partner 0.007 µg/mL | 0.704 | 0.698 | 0.596

fitness, [2]
Conditions | first compound 0.0625 µg/mL | first compound 0.07 µg/mL | first compound 0.125 µg/mL | first compound 0.14 µg/mL | first compound 0.25 µg/mL | first compound 0.28 µg/mL
partner 0.0018 µg/mL | 0.643 | 0.155 | 0.36 | 0.11 | 0.134 | 0.0567
partner 0.0035 µg/mL | 0.626 | 0.149 | 0.354 | 0.106 | 0.136 | 0.0647
partner 0.007 µg/mL | 0.532 | 0.103 | 0.296 | 0.108 | 0.0943 | 0.0726

CC[C@H]1OC(=O)[C@H](C)[C@@H](O[C@H]2C[C@@](C)(OC)[C@@H](O)[C@H](C)O2)[C@H](C)[C@@H](O[C@@H]2O[C@H](C)C[C@H](N(C)C)[C@H]2O)[C@](C)(OC)C[C@@H](C)C(=O)[C@H](C)[C@@H](O)[C@]1(C)O [Clarithromycin] + CO/N=C(\C(=O)N[C@@H]1C(=O)N2C(C(=O)[O-])=C(C[N+]3(C)CCCC3)CS[C@H]12)c1csc(N)n1 [Cefepime]
fitness, [2], one replicate
Conditions | first compound 0.007812 µg/mL | first compound 0.01562 µg/mL | first compound 0.03125 µg/mL
partner 0.0078 µg/mL | 0.887 | 0.866 | 0.673
partner 0.0155 µg/mL | 0.884 | 0.834 | 0.635
partner 0.031 µg/mL | 0.456 | 0.491 | 0.456

fitness, [2]
Conditions | first compound 0.0625 µg/mL | first compound 0.07 µg/mL | first compound 0.125 µg/mL | first compound 0.14 µg/mL | first compound 0.25 µg/mL | first compound 0.28 µg/mL
partner 0.007 µg/mL | 0.67 | – | 0.43 | – | 0.165 | –
partner 0.0078 µg/mL | – | 0.187 | – | 0.0821 | – | 0.103
partner 0.014 µg/mL | 0.675 | – | 0.458 | – | 0.181 | –
partner 0.0155 µg/mL | – | 0.168 | – | 0.105 | – | 0.108
partner 0.028 µg/mL | 0.611 | – | 0.358 | – | 0.136 | –
partner 0.031 µg/mL | – | 0.0769 | – | 0.102 | – | 0.091

CC[C@H]1OC(=O)[C@H](C)[C@@H](O[C@H]2C[C@@](C)(OC)[C@@H](O)[C@H](C)O2)[C@H](C)[C@@H](O[C@@H]2O[C@H](C)C[C@H](N(C)C)[C@H]2O)[C@](C)(OC)C[C@@H](C)C(=O)[C@H](C)[C@@H](O)[C@]1(C)O [Clarithromycin] + CO[C@@]12[C@H](COC(N)=O)C3=C(C(=O)C(C)=C(N)C3=O)N1C[C@@H]1N[C@@H]12 [Mitomycin C]
fitness, [2], one replicate
Conditions | first compound 0.007812 µg/mL | first compound 0.01562 µg/mL | first compound 0.03125 µg/mL
partner 0.002 µg/mL | 0.798 | 0.763 | 0.596
partner 0.004 µg/mL | 0.727 | 0.692 | 0.539
partner 0.008 µg/mL | 0.546 | 0.558 | 0.379

fitness, [2]
Conditions | first compound 0.0625 µg/mL | first compound 0.07 µg/mL | first compound 0.125 µg/mL | first compound 0.14 µg/mL | first compound 0.25 µg/mL | first compound 0.28 µg/mL
partner 0.001075 µg/mL | 0.654 | – | 0.345 | – | 0.084 | –
partner 0.002 µg/mL | – | 0.139 | – | 0.0901 | – | 0.0614
partner 0.00215 µg/mL | 0.642 | – | 0.285 | – | 0.108 | –
partner 0.004 µg/mL | – | 0.142 | – | 0.0707 | – | 0.0988
partner 0.0043 µg/mL | 0.526 | – | 0.245 | – | 0.0525 | –
partner 0.008 µg/mL | – | 0.0708 | – | 0.039 | – | 0.0676

CCC[C@@H]1C[C@@H](C(=O)N[C@@H]([C@H]2O[C@H](SC)[C@H](O)[C@@H](O)[C@H]2O)[C@H](C)Cl)N(C)C1 [Clindamycin] + CC1(C)S[C@@H]2[C@H](NC(=O)Cc3ccccc3)C(=O)N2[C@H]1C(=O)O [Penicillin G]
fitness, [1]
Conditions | first compound 0.0312 µg/mL | first compound 0.0625 µg/mL | first compound 0.125 µg/mL
partner 0.0195 µg/mL | 0.639 | 0.416 | 0.0886
partner 0.039 µg/mL | 0.708 | – | 0.0624
partner 0.078 µg/mL | – | – | 0.0543

CCC[C@@H]1C[C@@H](C(=O)N[C@@H]([C@H]2O[C@H](SC)[C@H](O)[C@@H](O)[C@H]2O)[C@H](C)Cl)N(C)C1 [Clindamycin] + CC[C@H]1OC(=O)[C@H](C)[C@@H](O[C@H]2C[C@@](C)(OC)[C@@H](O)[C@H](C)O2)[C@H](C)[C@@H](O[C@@H]2O[C@H](C)C[C@H](N(C)C)[C@H]2O)[C@](C)(OC)C[C@@H](C)C(=O)[C@H](C)[C@@H](O)[C@]1(C)O [Clarithromycin]
fitness, [2]
Conditions | first compound 0.0125 µg/mL | first compound 0.015 µg/mL | first compound 0.025 µg/mL | first compound 0.03 µg/mL | first compound 0.05 µg/mL | first compound 0.06 µg/mL
partner 0.0625 µg/mL | 0.563 | – | 0.422 | – | 0.164 | –
partner 0.07 µg/mL | – | 0.136 | – | 0.11 | – | 0.0799
partner 0.125 µg/mL | 0.409 | – | 0.338 | – | 0.109 | –
partner 0.14 µg/mL | – | 0.087 | – | 0.081 | – | 0.115
partner 0.25 µg/mL | 0.181 | – | 0.121 | – | 0.0631 | –
partner 0.28 µg/mL | – | 0.0757 | – | 0.0789 | – | 0.0946

fitness, [2], one replicate
Conditions | first compound 0.015 µg/mL | first compound 0.03 µg/mL | first compound 0.06 µg/mL
partner 0.007812 µg/mL | 0.728 | 0.578 | 0.283
partner 0.01562 µg/mL | 0.746 | 0.637 | 0.371
partner 0.03125 µg/mL | 0.635 | 0.557 | 0.175
